System: Mmp9
Experiment: Mmp9 expression by qPCR in mouse peritoneal macrophages cultured on fibronectin
Format: cell-based
Conditions: wild type and Arhgef1-deficient macrophages on fibronectin; 40 nM S1P, 10 μM LPA, 6 μM PTXA2; 24 h
Description: FIG. 4. TP signaling is required for MMP9 production in vitro and in vivo. A) Macrophage Mmp9 expression after culture on fibronectin for 24 hrs in media/vehicle (−), 40 nM S1P, 10 μM LPA, 10 nM U-46619 (TP agonist) or 6 μM PTXA2 (TP antagonist). Data represent normalized mean±SE. B) Arhgef1−/− mice (n=16) were exposed to aerosolized PBS (n=16), 220 μM PTXA2 (n=6) or 190 μM U-46619 (n=10) for 20 minutes and BAL harvested 1 day later and MMP activity measured.
FIG. 12. Thromboxane receptor signaling is necessary for fibronectin-induced MMP9 production by macrophages and is attenuated by Arhgef1. A, representative gelatin zymograms of conditioned media from macrophages cultured on plastic (ctl) or FN and treated with 1.56 or 6.25 μM of the thromboxane receptor antagonist PTA2. Wild type (+/+) and Arhgef1^−/− (−/−) samples from separate zymograms are shown. B, quantitation of MMP9 activity as determined by densitometric analysis of zymograms in A. The results are representative of two independent experiments. C, representative zymograms from conditioned media from macrophages cultured on plastic or fibronectin and treated with 28 μM of the thromboxane receptor antagonist L-655,240. D, quantitation of MMP9 activity as determined by densitometric analysis of zymograms in C. The results are compiled from two independent experiments with n=4 for both wild type (open bars) and Arhgef1^−/− (black bars) samples. The data represent the means±S.E. *, p<0.05 Student's two-tailed t test compared with conditioned media from cells cultured on plastic. #, p<0.05 Student's two-tailed t test comparing conditioned media from wild type cells to Arhgef1^−/− cells cultured under identical conditions. $, p<0.05 Student's two-tailed t test compared with conditioned media from cells cultured on fibronectin. E, MMP2 activity was quantitated in conditioned media as previously described for MMP9. The results are compiled from four independent experiments with n=10 for wild type (open bars) and Arhgef1^−/− (black bars) samples cultured on either plastic or fibronectin. For cells treated with 20 mM aspirin, n=6 for wild type (open bars) and Arhgef1^−/− (black bars) samples. For cells treated with 28 μM L-655,240, n=4 for wild type (open bars) and Arhgef1^−/− (black bars) samples. The data represent the means±S.E. F, MMP9 activity was quantitated as previously described and normalized to a percentage of fibronectin response for each genotype. The cells were either untreated or treated with 0.5% Me2SO or 28 μM L-655,240. The results are compiled from two independent experiments with n=3 for all conditions and genotypes. The data represent the means±S.E. *, p<0.05 Student's two-tailed t test compared with conditioned media from cells cultured on fibronectin. G, relative Mmp9 expression was measured by qPCR in macrophages cultured on fibronectin in the presence of the thromboxane receptor agonist (U-46619, 10 nM), S1P (40 nM), or LPA (10 μM). […] Wild type (open bars, n=12, 6, 3, and 3 for fibronectin, +U-46619, +S1P, and +LPA, respectively) and Arhgef1^−/− (black bars, n=14, 6, 3, and 2, respectively) from at least two independent experiments. The data represent the means±S.E. *, p<0.05 Student's two-tailed t test compared with conditioned media from cells cultured on fibronectin, #, p<0.05 Student's two-tailed t test comparing conditioned media from wild type cells to Arhgef1^−/− cells cultured under identical conditions. […]

Question: Which Mmp9 expression does the source give for `CCCCC[C@@H](O)/C=C/[C@H]1C[C@H]2C[C@@H]([C@@H]1C/C=C\CCCC(=O)O)C2(C)C` (relative stereo) [PTXA2, (18-(1alpha,2beta(Z),3alpha(1E,3S*),5alpha))-7-(3-(3-Hydroxy-1-octenyl)-6,6-dimethylbicyclo(3.1.1)hept-2-yl)-5-heptenoic acid] here?
Answer: The Mmp9 expression was “ablated Mmp9 expression”.
